{
  "source": "patent US9090617B1",
  "about": "“Agonists of Src homology-2 containing protein tyrosine phosphatase-1 and treatment methods using the same” (National Taiwan University, priority 2011, dated 2015)",
  "data": [
    {"tested_on": "PLC5 cells", "experiment": "MTT assay for cell growth inhibition in PLC5 cells", "assay_type": "cell-based", "conditions": "not given", "method": "These compounds were analyzed by MTT assay for cell growth inhibition in the PLC5 cells.\nNext, we changed the pyridine to a quinoline ring and amide linker to generate compounds 12-25. These compounds were also analyzed by MTT assay for cell growth inhibition in the PLC5 cells.", "units": {"IC50": "µM"}, "values": [
      {"smiles": "CNC(=O)c1cc(Oc2ccc(NS(=O)(=O)c3ccccc3)cc2)ccn1", "note": "[Compound 2, N-Methyl-4-(4-(phenylsulfonamido)phenoxy)picolinamide]", "IC50": "> 40"},
      {"smiles": "CNC(=O)c1cc(Oc2ccc(NS(=O)(=O)c3ccc([N+](=O)[O-])cc3)cc2)ccn1", "note": "[Compound 3, N-Methyl-4-(4-(4-nitrophenylsulfonamido)phenoxy)picolinamide]", "IC50": "> 40"},
      {"smiles": "CNC(=O)c1cc(Oc2ccc(NS(=O)(=O)c3ccc(F)cc3)cc2)ccn1", "note": "[Compound 4, 4-(4-(4-Fluorophenylsulfonamido)phenoxy)-N-methylpicolinamide]", "IC50": "> 40"},
      {"smiles": "CNC(=O)c1cc(Oc2ccc(NS(=O)(=O)c3ccc(C(C)(C)C)cc3)cc2)ccn1", "note": "[Compound 5, 4-(4-(4-tert-Butylphenylsulfonamido)phenoxy)-N-methylpicolinamide]", "IC50": "> 40"},
      {"smiles": "CNC(=O)c1cc(Oc2ccc(NS(=O)(=O)c3ccc4ccccc4c3)cc2)ccn1", "note": "[Compound 6, N-Methyl-4-(4-(naphthalene-2-sulfonamido)phenoxy)picolinamide]", "IC50": "> 40"},
      {"smiles": "CNC(=O)c1cc(Oc2ccc(NS(=O)(=O)c3ccc(C(F)(F)F)cc3Br)cc2)ccn1", "note": "[Compound 7, 4-(4-(2-Bromo-4-(trifluoromethyl)phenylsulfonamido)phenoxy)-N-methylpicolinamide]", "IC50": "> 40"},
      {"smiles": "CNC(=O)c1cc(Oc2ccc(NS(=O)(=O)c3ccccc3[N+](=O)[O-])cc2)ccn1", "note": "[Compound 8, N-Methyl-4-(4-(2-nitrophenylsulfonamido)phenoxy)picolinamide]", "IC50": "> 40"},
      {"smiles": "CNC(=O)c1cc(Oc2ccc(NC(=O)c3cc(C(F)(F)F)cc(C(F)(F)F)c3)cc2)ccn1", "note": "[Compound 9, 4-(4-(3,5-Bis(trifluoromethyl)benzamido)phenoxy)-N-methylpicolinamide]", "IC50": "> 40"},
      {"smiles": "CNC(=O)c1cc(Oc2ccc(NC(=O)c3cc(F)ccc3C(F)(F)F)cc2)ccn1", "note": "[Compound 10, 4-(4-(5-Fluoro-2-(trifluoromethyl)benzamido)phenoxy)-N-methylpicolinamide]", "IC50": "> 40"},
      {"smiles": "CNC(=O)c1cc(Oc2ccc(NC(=O)c3ccc(C(F)(F)F)cc3)cc2)ccn1", "note": "[Compound 11, N-Methyl-4-(4-(4-(trifluoromethyl)benzamido)phenoxy)picolinamide]", "IC50": "> 40"},
      {"smiles": "O=[N+]([O-])c1cc(C(F)(F)F)ccc1S(=O)(=O)Nc1ccc(Oc2ccnc3ccccc23)cc1", "note": "[Compound 12, 2-Nitro-N-(4-(quinolin-4-yloxy)phenyl)-4-(trifluoromethyl)benzenesulfonamide]", "IC50": "> 40"},
      {"smiles": "O=[N+]([O-])c1cc(C(F)(F)F)ccc1S(=O)(=O)Nc1ccc(Oc2ccnc3c([N+](=O)[O-])cccc23)cc1", "note": "[Compound 13, 2-Nitro-N-(4-(8-nitroquinolin-4-yloxy)phenyl)-4-(trifluoromethyl)benzenesulfonamide]", "IC50": "> 40"},
      {"smiles": "O=S(=O)(Nc1ccc(Oc2ccnc3ccccc23)cc1)c1ccc(C(F)(F)F)cc1Br", "note": "[Compound 14, 2-Bromo-N-(4-(quinolin-4-yloxy)phenyl)-4-(trifluoromethyl)benzenesulfonamide]", "IC50": "> 40"},
      {"smiles": "O=[N+]([O-])c1cccc2c(Oc3ccc(NS(=O)(=O)c4ccc(C(F)(F)F)cc4Br)cc3)ccnc12", "note": "[Compound 15, 2-Bromo-N-(4-(8-nitroquinolin-4-yloxy)phenyl)-4-(trifluoromethyl)benzenesulfonamide]", "IC50": "> 40"},
      {"smiles": "O=C(Nc1ccc(Oc2ccnc3ccccc23)cc1)c1cc(C(F)(F)F)cc(C(F)(F)F)c1", "note": "[Compound 16, N-(4-(Quinolin-4-yloxy)phenyl)-3,5-bis(trifluoromethyl)benzamide]", "IC50": 16},
      {"smiles": "O=C(Nc1ccc(Oc2ccnc3c([N+](=O)[O-])cccc23)cc1)c1cc(C(F)(F)F)cc(C(F)(F)F)c1", "note": "[Compound 17, N-(4-(8-Nitroquinolin-4-yloxy)phenyl)-3,5-bis(trifluoromethyl)benzamide]", "IC50": "> 40"},
      {"smiles": "O=C(Nc1ccc(Oc2ccnc3ccccc23)cc1)c1cc(C(F)(F)F)ccc1F", "note": "[Compound 18, 2-Fluoro-N-(4-(quinolin-4-yloxy)phenyl)-5-(trifluoromethyl)benzamide]", "IC50": 21.1},
      {"smiles": "O=C(Nc1ccc(Oc2ccnc3c([N+](=O)[O-])cccc23)cc1)c1cc(C(F)(F)F)ccc1F", "note": "[Compound 19, 2-Fluoro-N-(4-(8-nitroquinolin-4-yloxy)phenyl)-5-(trifluoromethyl)benzamide]", "IC50": "> 40"},
      {"smiles": "Cc1cc(NC(=O)c2cc(C(F)(F)F)cc(C(F)(F)F)c2)ccc1Oc1ccnc2c([N+](=O)[O-])cccc12", "note": "[Compound 20, N-(3-Methyl-4-(8-nitroquinolin-4-yloxy)phenyl)-3,5-bis(trifluoromethyl)benzamide]", "IC50": "> 40"},
      {"smiles": "Cc1cc(NC(=O)c2cc(C(F)(F)F)cc(C(F)(F)F)c2)ccc1Oc1ccnc2c(N)cccc12", "note": "[Compound 21, N-(4-(8-Aminoquinolin-4-yloxy)-3-methylphenyl)-3,5-bis(trifluoromethyl)benzamide]", "IC50": 25.4},
      {"smiles": "CC(=O)Nc1cccc2c(Oc3ccc(NC(=O)c4cc(C(F)(F)F)cc(C(F)(F)F)c4)cc3C)ccnc12", "note": "[Compound 22, N-(4-(8-Acetamidoquinolin-4-yloxy)-3-methylphenyl)-3,5-bis(trifluoromethyl)benzamide]", "IC50": "> 40"},
      {"smiles": "O=C(Nc1cccc(Oc2ccnc3c([N+](=O)[O-])cccc23)c1)c1cc(C(F)(F)F)cc(C(F)(F)F)c1", "note": "[Compound 23, N-(3-(8-Nitroquinolin-4-yloxy)phenyl)-3,5-bis(trifluoromethyl)benzamide]", "IC50": "> 40"},
      {"smiles": "Nc1cccc2c(Oc3cccc(NC(=O)c4cc(C(F)(F)F)cc(C(F)(F)F)c4)c3)ccnc12", "note": "[Compound 24, N-(3-(8-Aminoquinolin-4-yloxy)phenyl)-3,5-bis(trifluoromethyl)benzamide]", "IC50": 19},
      {"smiles": "CC(=O)Nc1cccc2c(Oc3cccc(NC(=O)c4cc(C(F)(F)F)cc(C(F)(F)F)c4)c3)ccnc12", "note": "[Compound 25, N-(3-(8-Acetamidoquinolin-4-yloxy)phenyl)-3,5-bis(trifluoromethyl)benzamide]", "IC50": 10.8}
    ]},
    {"tested_on": "p-STAT3, cyclin D1, survivin, Mc1-1", "experiment": "Western blot of STAT3-related proteins in HCC cells", "assay_type": "cell-based", "conditions": "PLC5 cells, 5 and 10 μM, 24 h", "method": "Cells were treated with various compounds at 5 and 10 μM for 24 h. Cell lysates were analyzed by western blot.\nHCC cells treated with SC-43 (10 μM for 24 h) were collected with RIPA lysis buffer. Antibodies for immunoblotting such as cyclin D1 was purchased from Santa Cruz Biotechnology. Other antibodies such as survivin, phospho-STAT3 (Tyr705), STAT3, Mc1-1, SOCS1, and SOCS3 were from Cell Signaling.", "values": [
      {"smiles": "O=[N+]([O-])c1cc(C(F)(F)F)ccc1S(=O)(=O)Nc1ccc(Oc2ccnc3ccccc23)cc1", "note": "[Compound 12, 2-Nitro-N-(4-(quinolin-4-yloxy)phenyl)-4-(trifluoromethyl)benzenesulfonamide]", "cyclin D1 and survivin level": "had no effect on either protein"}
    ]},
    {"tested_on": "HCC cells", "experiment": "cells", "conditions": "not given", "from_the_text": "Points, mean; bars, SD (n=6).\nPoints, mean; bars, SD ([…]). […] The N-SH2 domain is in orange, the C-SH2 domain is in marine, the PTP domain is in hot pink, and the linkers between them are in gray. […] ELISA, enzyme-linked immunosorbent assay.", "values": [
      {"smiles": "N#Cc1ccc(Oc2cc(NC(=O)Nc3ccc(Cl)c(C(F)(F)F)c3)ccc2F)cc1", "note": "[SC-111, 1-(4-chloro-3-(trifluoromethyl)phenyl)-3-(3-(4-cyanophenoxy)-4-fluorophenyl)urea]", "viability of HCC cells / cytotoxicity": "exhibits antitumor effect in vitro"}
    ]},
    {"tested_on": "HCC cells", "experiment": "Apoptosis analysis by flow cytometry (sub-G1)", "assay_type": "cell-based", "conditions": "HCC cells, 24 h", "method": "Apoptotic cells were measured by flow cytometry (sub-G1). After treatment with various compounds, cells were trypsinized, collected by centrifugation and resuspended in PBS. After centrifugation, the cells were washed in PBS and resuspended in […] (PI) staining solution. Specimens were incubated in the dark for 30 min at 37° C. and then analyzed with an EPICS Profile II flow cytometer (Coulter Corp., Hialeah, Fla.). All experiments were performed in triplicate\nCollected cells were fixed in 75% Ethanol and stained with 20 ug/ml Propidium Iodide (PI). Sub-G1 analysis was performed by flow-cytometry. […] Points, mean; bars, SD (n=6).", "values": [
      {"smiles": "O=S(=O)(Nc1cccc(Oc2ccn3cc(-c4ccccc4)nc3c2)c1)c1cccc(C(F)(F)F)c1", "note": "[SC-37, N-(3-(2-phenylimidazo[1,2-a]pyridin-7-yloxy)phenyl)-3-(trifluoromethyl)benzenesulfonamide]", "apoptosis (sub-G1)": "has no activity in inducing cancer cell apoptosis"},
      {"smiles": "N#Cc1ccc(Oc2cccc(NC(=O)C3(C(=O)Nc4cccc(Oc5ccc(C#N)cc5)c4)CC3)c2)cc1", "note": "[SC-67, N,N′-bis(3-(4-cyanophenoxyl)phenyl)cyclopropane-1,1-dicarboxamide]", "apoptosis (sub-G1)": "has no activity in inducing cancer cells (PLC5) apoptosis"}
    ]}
  ]
}
